# Experimental data reported in patent publication US8609161B2, “Conglutin-gamma as medicament and diet supplement” (Ospedale San Raffaele S.R.L., priority 2008, dated 2013).
# “Also recorded” adds a separate entry of the source.
# Legend:
# ERK2 = assay: ERK-2 phosphorylation, western blot of stimulated C2C12 myotubes; format: cell-based, mouse
# Protocol: (§1) C2C12 myoblasts were cultured at 37° C. in humidified 5% CO2 atmosphere in a growth medium (GM) containing DMEM supplemented with 20% (v/v) FBS (fetal bovine serum), 1% penicillin-streptomycin and 1% L-glutamine. Cell differentiation was initiated by placing 70% confluent cell cultures in DMEM supplemented with 1% HS (horse serum) and antibiotics (DM). To prepare myotube cultures, myoblasts were cultured in DM for 72 hours. Cells used as control (C) were switched back to GM for the duration of the experiment. Other three groups of cells were replaced in GM with the selective addition respectively of insulin (I; 100 nM), conglutin-γ (Cg; 0.5 mg/ml) and metformin (Mf; 400 μM). For each experimental condition cells were lysed at 0, 5, 10, 20 and 30 minutes after the stimuli addition.
# (§2) C2C12 myofibers were homogenized in lysis buffer (50 mM Tris/HCl, pH 7.4, 150 mM NaCl, 1% Triton X-100, 1 mM sodium orthovanadate (Na3VO4), 1 mM EDTA, 1 mM PMSF, 1 mg/ml aprotinin, 1 mg/ml leupeptin, 1 mg/ml pepstatin) and shaked for 1 h at 4° C. Detergent-insoluble material was removed from the cell suspension by centrifugation at 12,000×g for 30 min. Aliquots of 30 µg supernatant proteins from the different samples were resolved by 8% (IRS1, MHC, myogenin and p-CBL), 10% (PI3K p85, AKT1, p-p70 S6K and PKC), 12% (eIF-4E, p-ERK1, p-ERK2, caveolin-3 and flottilin-2) and 15% (PHAS1) SDS-PAGE (Sodium Dodecyl Sulfate—PolyAcrylamide Gel Electrophoresis). Electrophoresed proteins were transferred onto nitrocellulose membranes using a Bio-Rad Mini Trans-Blot system. […]
# (§3) The membrane was stripped and re-probed with an antibody to actin or tubulin to confirm equal protein loading per sample. Quantitative measurement of immunoreactive bands was performed by densitometric analysis using the Scion image software (Scion corporation, Frederick, Md., USA).
# flottilin-2 = flottilin-2 protein, western blot of stimulated C2C12 myotubes; format: cell-based, mouse
# Protocol: as §1
# (§4) C2C12 myofibers were homogenized in lysis buffer (50 mM Tris/HCl, pH 7.4, 150 mM NaCl, 1% Triton X-100, 1 mM sodium orthovanadate (Na3VO4), 1 mM EDTA, 1 mM PMSF, 1 mg/ml aprotinin, 1 mg/ml leupeptin, 1 mg/ml pepstatin) and shaked for 1 h at 4° C. […]
# as §3
# PKC = PKC protein, western blot of stimulated C2C12 myotubes; format: cell-based, mouse
# Protocol: as §1, §4, §3
# C2C12 myoblasts = assay: Immunofluorescence of MHC-positive myotubes (differentiation, hypertrophy); format: cell-based, mouse; details: vs un-stimulated differentiated muscle cells; I 100 nM, Cg 0.5 mg/ml, Mf 400 μM
# Protocol: To prepare myotube cultures, myoblasts were cultured in DM for 72 hours. Cells used as control (C) were switched back to GM for the duration of the experiment. […] For each experimental condition cells were lysed at 0, 5, 10, 20 and 30 minutes after the stimuli addition. For immunofluorescence analysis C2C12 myoblasts differentiated as above were stimulated with insulin, conglutin-γ and metformin for 30 minutes. In differentiated cells immunostained with anti-MHC the DAPI stained nuclei per myotube, myotubes length and diameter were determined and expressed as average.
# PHAS-1 = PHAS-1 α and β bands, western blot of stimulated C2C12 myotubes; format: cell-based, mouse; details: I 100 nM, Cg 0.5 mg/ml, Mf 400 μM
# Protocol: as §1, §4, §3
# myogenin = myogenin content, western blot of stimulated C2C12 myotubes; format: cell-based, mouse; details: I 100 nM, Cg 0.5 mg/ml, Mf 400 μM
# Protocol: as §1, §4, §3
# caveolin-3 = caveolin-3 protein, western blot of stimulated C2C12 myotubes; format: cell-based, mouse; details: 30 min / toward the end of the experiment; I 100 nM, Mf 400 μM
# Protocol: as §1, §4, §3
# MHC = MHC gene expression (protein content), western blot of stimulated C2C12 myotubes; format: cell-based, mouse; details: Cg 0.5 mg/ml
# Protocol: as §1, §4, §3
# ERK1 = assay: ERK-1 phosphorylation, western blot of stimulated C2C12 myotubes; format: cell-based, mouse
# Protocol: as §1, §4, §3
# IRS-1 = IRS-1 protein content, western blot of stimulated C2C12 myotubes; format: cell-based, mouse; details: I 100 nM, Cg 0.5 mg/ml, Mf 400 μM; for IRS-1 activation: 30 min
# Protocol: as §1, §2, §3
# eIF4E [1] = assay: eIF4E protein, western blot of stimulated C2C12 myotubes; format: cell-based, mouse; details: for eIF4E protein concentration increase: I 100 nM
# Protocol: as §1, §2, §3
# p70S6K [2] = assay: p70S6K phosphorylation, western blot of stimulated C2C12 myotubes; format: cell-based, mouse; details: Mf 400 μM; for p70S6K phosphorylation: I 100 nM, Cg 0.5 mg/ml
# Protocol: as §1
# C2C12 myofibers were homogenized in lysis buffer (50 mM Tris/HCl, pH 7.4, 150 mM NaCl, 1% Triton X-100, 1 mM sodium orthovanadate (Na3VO4), 1 mM EDTA, 1 mM PMSF, 1 mg/ml aprotinin, 1 mg/ml leupeptin, 1 mg/ml pepstatin) and shaked for 1 h at 4° C. Detergent-insoluble material was removed from the cell suspension by centrifugation at 12,000×g for 30 min. Aliquots of 30 µg supernatant proteins from the different samples were resolved by 8% (IRS1, MHC, myogenin and p-CBL), 10% (PI3K p85, AKT1, p-p70 S6K and PKC), 12% (eIF-4E, p-ERK1, p-ERK2, caveolin-3 and flottilin-2) and 15% (PHAS1) SDS-PAGE (Sodium Dodecyl Sulfate—PolyAcrylamide Gel Electrophoresis). Electrophoresed proteins were transferred onto nitrocellulose membranes using a Bio-Rad Mini Trans-Blot system. The blots were blocked with 50 mg/ml non-fat dry milk in 20 mM Tris/HCl, pH 7.4, 100 mM NaCl for 1 h at room temperature and then incubated overnight at 4° C. with respective primary antibodies in 10 mg/ml non-fat dry milk, 20 mM TRIS/HCl pH 7.4 and 100 mM NaCl and 0.3% Tween 20. After several washes the membranes were incubated with species-specific secondary antibodies. Immunoreactive bands were visualized by an enhanced chemiluminescence method (Amersham Pharmacia Biotech, Piscataway, N.J., USA).
# as §3
# Akt-1 = Akt-1 protein, western blot of stimulated C2C12 myotubes; format: cell-based, mouse
# Protocol: as §1, §2, §3
# eIF4E [3] = assay: eIF4E protein in gastrocnemius muscle at end of IPGTT; format: in vivo, mouse; details: 120 min; conglutin-gamma 120 mg/kg i.p., insulin 0.5 U/kg i.p.
# Protocol: (§5) For this protocol C57B1/6 wild type mice were utilized. Intraperitoneal glucose tolerance test (IPGTT) was performed by injecting glucose (2 g/kg body weight) i.p. in three groups of overnight-fasted mice. Thirty minutes before glucose administration, conglutin-gamma (120 mg/kg b.w.) was injected i.p. in the “Conglutin” group of mice. In the “Insulin” group of mice, insulin (0.5 U/kg b.w.) was administered i.p. at the same time of glucose injection (time 0). Blood glucose levels were determined prior (30 and 0 minutes) to injection and 30, 60, 90, and 120 min after injection. Blood samples were obtained from the tail vein and plasmas used to measure glucose concentration by the glucose reflectometer. At the end of the study gastrocnemius muscle was taken. A group of overnight-fasted mice (basal) was sacrificed before the study and gastrocnemius muscle taken. A group of animals that received saline instead of insulin or conglutin-gamma, was used as control (saline).
# (§6) Collected gastrocnemius muscle was frozen in liquid nitrogen immediately after excision and then stored at −80° C. A gram of tissue with 1.5 ml of ice cold RIPA buffer was disrupted and homogenized with a dounce homogenizer, maintaining temperature at 4° C. throughout all procedures, then incubated on ice for 30 minutes. The homogenate was transferred to microcentrifuge tubes, centrifugated at 10,000×g for 10 minutes at 4° C. […]
# p85-PI3 kinase = assay: PI3K-p85 subunit, western blot of stimulated C2C12 myotubes; format: cell-based, mouse; details: I 100 nM, Cg 0.5 mg/ml
# Protocol: as §1, §4, §3
# [4] = system: insulin receptor beta (IR-beta); assay: IR-beta protein content in gastrocnemius muscle at end of IPGTT; format: in vivo, mouse; details: 120 min, with respect to the basal and saline group; conglutin-gamma 120 mg/kg i.p., insulin 0.5 U/kg i.p.
# Protocol: as §5, §6
# Cbl = Cbl phosphorylation, western blot of stimulated C2C12 myotubes; format: cell-based, mouse; details: 30 min; I 100 nM
# Protocol: as §1, §4, §3
# GSK-3 = GSK-3 in gastrocnemius muscle at end of IPGTT; format: in vivo, mouse; details: 120 min; conglutin-gamma 120 mg/kg i.p., insulin 0.5 U/kg i.p.
# Protocol: as §5, §6
# [5] = Intraperitoneal glucose tolerance test (IPGTT), blood glucose; format: in vivo, C57B1/6 wild type mice
# Protocol: as §5
# p70S6K [6] = assay: p70S6k phosphorylation in gastrocnemius muscle at end of IPGTT; format: in vivo, mouse; details: 120 min; conglutin-gamma 120 mg/kg i.p., insulin 0.5 U/kg i.p.
# Protocol: as §5, §6
# AKT1 = AKT1 protein expression in gastrocnemius muscle at end of IPGTT; format: in vivo, mouse; details: 120 min, with respect to the untreated muscle; conglutin-gamma 120 mg/kg i.p., insulin 0.5 U/kg i.p.
# Protocol: as §5, §6
# ERK1 and ERK2 = ERK1 and ERK2 phosphorylation in gastrocnemius muscle at end of IPGTT; format: in vivo, mouse; details: 120 min; conglutin-gamma 120 mg/kg i.p., insulin 0.5 U/kg i.p.
# Protocol: as §5, §6
# [7] = Mf 400 μM vs insulin and conglutin-γ
molecule,measurement,setting,value
"CN(C)C(=N)N=C(N)N [metformin, Metformin]","ERK2 activation, in words",ERK2; [7],higher activation
same,"flottilin-2 activation, in words",flottilin-2; Mf 400 μM,did not exert any flottilin-2 activation
same,"PKC protein concentration stimulation, in words",PKC; [7],more than the other two stimuli
same,fusion index,C2C12 myoblasts,gradually increase
same,myotubes diameter,C2C12 myoblasts,gradually increase
same,myotubes length,C2C12 myoblasts,gradually increase
same,number of nuclei present in MHC positive myotubes,C2C12 myoblasts,gradually increase
same,density of PHAS-1 α and β bands in respect to the control,PHAS-1,more increased
same,myogenin activation,myogenin,did not exert any effect
same,caveolin-3 protein concentration increase,caveolin-3,above 70%
same,"MHC gene expression, in words","MHC; with respect to un-stimulated differentiated muscle cells, Mf 400 μM",unable to produce the same effect; also recorded: not able to induce the same gene expression
same,"ERK1 activation, in words",ERK1; [7],higher activation
same,IRS-1 activation,IRS-1,~76%
same,"eIF4E activation, in words",eIF4E [1]; Mf 400 μM,not able to exert an activation
same,p70S6K phosphorylation,p70S6K [2]; 30 min,~32%
same,Emax,"p70S6K [2]; Mus musculus, C2C12, 10 min, within 10 min, read-out: p70S6K phosphorylation (maximal effect)",~46%
same,Emax,"Akt-1; Mus musculus, C2C12, 5 min, 5 min, Mf 400 μM, read-out: Akt-1 protein concentration change (maximal effect)",~20%
insulin: primary hormone responsible for proteosynthesis control and glucose homeostasis; comparator stimulus,eIF4E activation in muscle,eIF4E [3],able to increment
same,ERK2 activation,"ERK2; 10 min, I 100 nM",~20%
same,ERK2 activation (maximum),"ERK2; 30 min, I 100 nM, Cg 0.5 mg/ml",~28%
same,flottilin-2 protein concentration increase (peak),"flottilin-2; 10 min, I 100 nM, Cg 0.5 mg/ml",~60%
same,PKC concentration increase,"PKC; 20 min, I 100 nM, Cg 0.5 mg/ml",~32%
same,p85-PI3 kinase activation,p85-PI3 kinase; 30 min (end of the experiment),~56%
same,p85-PI3 kinase activation,p85-PI3 kinase; within 5 min,~62%
same,IR-beta protein content in muscle,[4],trend towards IR-beta protein content increment
same,Cbl phosphorylation (maximal),Cbl,~56%
same,fusion index,C2C12 myoblasts,gradually increase
same,myotubes diameter,C2C12 myoblasts,gradually increase
same,myotubes length,C2C12 myoblasts,gradually increase
same,number of nuclei present in MHC positive myotubes,C2C12 myoblasts,gradually increase
same,density of PHAS-1 α and β bands in respect to the control,PHAS-1,more increased
same,GSK-3 phosphorylation in muscle,GSK-3,increased
same,myogenin activation,myogenin,overlapping
same,caveolin-3 protein concentration increase,caveolin-3,~34%
same,MHC expression increase,"MHC; with respect to the un-stimulated differentiated muscle cells, I 100 nM",~600%
same,blood glucose concentration at the end of the study,"[5]; 120 min after glucose 2 g/kg i.p., conglutin-gamma 120 mg/kg i.p. at -30 min, insulin 0.5 U/kg i.p. at time 0",~120 mg/dL
same,course of blood glucose decrease during IPGTT,"[5]; glucose 2 g/kg i.p., conglutin-gamma 120 mg/kg i.p., insulin 0.5 U/kg i.p.",decreased rapidly
same,ERK1 activation (peak),"ERK1; 20 min, I 100 nM, Cg 0.5 mg/ml",~27%
same,p70S6k phosphorylation in muscle,p70S6K [6],increased
same,IRS-1 protein content stimulation / activation,IRS-1; 20 min,~32%
same,IRS-1 activation,IRS-1,~35%
same,AKT1 expression in muscle,AKT1,able to increase AKT1 expression
same,eIF4E protein concentration increase,"eIF4E [1]; 30 min (end of the experiment), Cg 0.5 mg/ml",~30%
same,eIF4E protein concentration increase,eIF4E [1]; persistent from 5 to 20 min,~45%
same,p70S6K phosphorylation,p70S6K [2]; 30 min,~94%
same,p70S6K phosphorylation,p70S6K [2]; within 5 min,~40%
same,ERKs phosphorylation in muscle,ERK1 and ERK2,able to increment
same,Akt-1 protein concentration change,"Akt-1; 20 min, I 100 nM, Cg 0.5 mg/ml, Mf 400 μM",~13%
same,"AKT-1 phosphorylation, in words","Akt-1; any time 5-30 min, I 100 nM, Cg 0.5 mg/ml",modest stimulation above basal at any time
